{
  "source": "patent US20210069354A1",
  "about": "“METHOD OF TRANSPORTING AN AGENT ACROSS BLOOD-BRAIN, BLOOD-COCHLEAR OR BLOOD-CEREBROSPINAL FLUID BARRIER” (Oklahoma Medical Research Foundation, priority 2015, published 2021)",
  "origin": "cited, not measured here",
  "settings": "normal brain",
  "data": [
    {"smiles": "O=C([O-])CN(CCN(CC(=O)[O-])CC(=O)O)CCN(CC(=O)[O-])CC(=O)O.[Gd+3]", "note": "[Gd-DTPA, gadolinium diethylene triamine penta acetic acid]", "values": [
      {"measurement": "crossing of the BBB", "value": "does not cross the BBB"}
    ]}
  ]
}
